According to patent publication US8716231B2, “Use of benzo-fused heterocycle sulfamide derivatives for the treatment of pain” (Janssen Pharmaceutica NV, priority 2005, dated 2014):

Key:
[1] = system: mechanical (tactile) allodynia after L5 nerve ligation; test: Rat Chung Model of Neuropathic Pain (Example 14); format: in vivo, Sprague Dawley rats
From the text: The rat Chung model is an assay used in determining whether a compound is useful for the treatment of neuropathic pain (Kim and Chung, 1994; Chaplan et al., 1994).
In this study, male Sprague Dawley rats (145-165 g; Harlan) were anesthetized and the L5 nerve was isolated and ligated with silk suture material resulting in mechanical allodynia. […] The results were normalized and results are presented as % MPE ([…]) of the drug.

[2] = system: acetic acid-induced abdominal stretching; test: Acetic Acid-induced Abdominal Constriction Model of Visceral Pain; format: in vivo, CD-1 mice; conditions: 560 mg/kg oral; for number of abdominal stretches: not statistically significant (vehicle 13 to 16.2)
Method: The purpose of this assay was to determine whether Compound #8 reverses hypersensitivity in visceral, inflammatory and neuropathic models of pain.
Test compound and controls were dissolved in the appropriate volume of 0.5% HPMC or 10% solutol in 0.5% hydoxypropyl methylcellulose (HPMC). HPMC served as the vehicle for preparation of gabapentin solutions used as the positive control. Solutions were prepared to provide the final dose in a volume of 10 mL/kg orally (p.o.) for mice. Male CD-1 mice from Charles Rivers Laboratories (Portage, Me.), weighing between 25 and 30 grams at the time of study, were used for the acetic acid-induced abdominal stretching studies.
Mice in the acetic acid-induced abdominal stretching study were allowed 1 hr to acclimate to the testing room before the start of the study. Animals were housed in micro-isolator cages in groups of four rats per cage or 5 mice per cage with corncob bedding and free access to food and water. The environment was maintained at a constant temperature of 21° C., with a 12-hour light/dark cycle.
Animals used in the acetic acid-induced abdominal stretching test were maintained with original cage mates throughout the study period (four rats per cage, 5 mice per cage; cages were Nalgene® with corn cob bedding). Animals from several cages were randomly assigned across treatment groups; that is, mice in a given cage were pseudo-randomly assigned to different treatment groups. In all tests, the investigator performing the behavioral analysis was blinded to the treatment administered to any individual animal.
Mice were then given an i.p injection of 0.5 mL (2×0.25 mL/abdominal quadrant) of 0.6% acetic acid following 1 hr, 2 hrs, 3 hrs or 4 hours treatment with vehicle, compound or positive control. Five minutes after i.p acetic acid injection, 5 animals were placed into separate bell jars containing a small amount of bedding chips, and the number of abdominal stretches per animal was recorded for 5 minutes. This was repeated for each group (N=10 mice/group). […]

[3] = system: CFA induced thermal hypersensitivity (radiant heat paw withdrawal latency); test: Complete Freund's Adjuvant (CFA)-induced Model of Inflammatory Pain; format: in vivo, Sprague-Dawley rats; conditions: 560 mg/kg oral; 4 hr after oral administration
Method: Intraplantar injection of CFA in rats results in a long-lasting inflammatory reaction, characterized by edema and a pronounced hypersensitivity to both thermal and mechanical stimuli. This hypersensitivity peaks between 24-72 hours after injection and can last for several weeks. This assay predicts the analgesic, antiallodynic and/or antihyperalgesic effect of test compounds.
Test compound and controls were dissolved in the appropriate volume of 0.5% HPMC or 10% solutol in 0.5% hydoxypropyl methylcellulose (HPMC). Solutions were prepared to provide the final dose in a volume of 2.5 mL/kg or 5 mL/kg p.o. for rats. Male, Sprague-Dawley rats from Charles Rivers Laboratories (Portage, Me.), weighing between 250 and 350 grams at the time of study, were used for the CFA paw radiant heat studies.
Rats in the CFA study were moved to a testing room the day of the CFA injection, where they remained for the duration of the study. […]
On the day of study, rats were given a 100 μL (1 μg/μL) intraplantar injection of CFA (1:1 CFA:saline) into their left hindpaw. […] Percent Reversal of hyperalgesia was calculated for each animal as [(treatment response)−(post-CFA response)]/[(pre-CFA response)−(post-CFA response)]×100. Average % reversal of hyperalgesia was then calculated for each treatment group (n=5-6 rats/group). […]

| SMILES | effect of positive control on mechanical allodynia ([1]; 480 mg/kg p.o.) | number of abdominal stretches ([2]; 2 hr after administration) [stretches] | number of abdominal stretches ([2]; 3 hr after administration) [stretches] | peak reversal of thermal hypersensitivity (compared with the 24-hr post-CFA baseline) [3] [%] | time at which efficacy peaked ([1]; 120 mg/kg p.o.) [h] | time at which efficacy was observed ([1]; 120 mg/kg p.o.) [min] | time post-dosing at which efficacy was sustained ([1]; 120 mg/kg p.o.) [h] | time at which efficacy peaked ([1]; 240 mg/kg, po) [h] | time at which efficacy was observed ([1]; 240 mg/kg, po) [min] | time post-dosing at which efficacy was sustained ([1]; 240 mg/kg, po) [h] | effect on acetic acid-induced stretching ([2]; compared with vehicle- or gabapentin-treated mice) |
| --- | --- | --- | --- | --- | --- | --- | --- | --- | --- | --- | --- |
| NCC1(CC(=O)O)CCCCC1 [gabapentin, reference compound] | equivalent to the activity measured for Compound #8 at 240 mg/kg dosing | 11.00±1.5 | 10.0±1.6 | 68.6 | – | – | – | – | – | – | – |
| NS(=O)(=O)NC[C@H]1COc2cc(Cl)ccc2O1 [Compound #8, (2S)-(−)-N-(6-Chloro-2,3-dihydro-benzo[1,4]dioxin-2-ylmethyl)-sulfamide] | – | – | – | 86.0 | 1 | 30 | 4 | 2 to 4 | 30 | 24 | did not significantly modify acetic acid-induced stretching |
